Reference: US12365696B2, “Small-molecule focal adhesion kinase (FAK) inhibitors” (DANA-FARBER CANCER INSTITUTE, INC., priority 2019, dated 2025)

How the values were obtained:
Experiment in all cases: KINOMEscan
Assay type in all cases: binding
[1] = target: CSF1R (Homo sapiens (Human), UniProt P07333); details: 10000 nM, read-out: Percent Control
[2] = target: CSNK1G3 (Homo sapiens (Human), UniProt Q9Y6M4); details: CSNK1G3, 10000 nM; read-out: Percent Control
[3] = target: DCAMKL3 (Homo sapiens (Human), UniProt Q9C098); details: DCAMKL3, 10000 nM; read-out: Percent Control
[4] = target: DLK (Homo sapiens (Human), UniProt Q12852); details: 10000 nM, read-out: Percent Control
[5] = target: EIF2AK1 (Homo sapiens (Human), UniProt Q9BQI3); details: EIF2AK1, 10000 nM; read-out: Percent Control
[6] = target: EPHA8 (Homo sapiens (Human), UniProt P29322); details: EPHA8, 10000 nM; read-out: Percent Control
[7] = target: FLT1 (Homo sapiens (Human), UniProt P17948); details: FLT1, 10000 nM; read-out: Percent Control
[8] = target: FLT3(D835V) (Homo sapiens (Human), UniProt P36888, D835V); details: 10000 nM, read-out: Percent Control
[9] = target: FLT4 (Homo sapiens (Human), UniProt P35916); details: FLT4, 10000 nM; read-out: Percent Control
[10] = target: FRK (Homo sapiens (Human), UniProt P42685); details: 10000 nM, read-out: Percent Control
[11] = target: HIPK1 (Homo sapiens (Human), UniProt Q86Z02); details: HIPK1, 10000 nM; read-out: Percent Control
[12] = target: HIPK2 (Homo sapiens (Human), UniProt Q9H2X6); details: HIPK2, 10000 nM; read-out: Percent Control
[13] = target: JAK2(JH1domain-catalytic) (Homo sapiens (Human), UniProt O60674); details: 10000 nM, read-out: Percent Control
[14] = target: JNK3 (Homo sapiens (Human), UniProt P53779); details: JNK3, 10000 nM; read-out: Percent Control
[15] = target: MAP3K1 (Homo sapiens (Human), UniProt Q13233); details: MAP3K1, 10000 nM; read-out: Percent Control
[16] = target: MKNK1 (Homo sapiens (Human), UniProt Q9BUB5); details: MKNK1, 10000 nM; read-out: Percent Control
[17] = target: MUSK (Homo sapiens (Human), UniProt O15146); details: 10000 nM, read-out: Percent Control
[18] = target: NDR2 (Homo sapiens (Human), UniProt Q9Y2H1); details: NDR2, 10000 nM; read-out: Percent Control
[19] = target: NEK4 (Homo sapiens (Human), UniProt P51957); details: NEK4, 10000 nM; read-out: Percent Control
[20] = target: PIK3C2G (Homo sapiens (Human), UniProt O75747); details: 10000 nM, read-out: Percent Control
[21] = target: PIK3CA(C420R) (Homo sapiens (Human), UniProt P42336, C420R); details: 10000 nM, read-out: Percent Control
[22] = target: PIK3CA(E545A) (Homo sapiens (Human), UniProt P42336, E545A); details: 10000 nM, read-out: Percent Control
[23] = target: PIK3CA(H1047Y) (Homo sapiens (Human), UniProt P42336, H1047Y); details: 10000 nM, read-out: Percent Control
[24] = target: PIM2 (Homo sapiens (Human), UniProt Q9P1W9); details: PIM2, 10000 nM; read-out: Percent Control
[25] = target: PKAC-alpha (Homo sapiens (Human), UniProt P17612); details: 10000 nM, read-out: Percent Control
[26] = target: PKAC-beta (Homo sapiens (Human), UniProt P22694); details: 10000 nM, read-out: Percent Control
[27] = target: PKMYT1 (Homo sapiens (Human), UniProt Q99640); details: PKMYT1, 10000 nM; read-out: Percent Control
[28] = target: PRKCE (Homo sapiens (Human), UniProt Q02156); details: 10000 nM, read-out: Percent Control
[29] = target: QSK (Homo sapiens (Human), UniProt Q9Y2K2); details: 10000 nM, read-out: Percent Control
[30] = target: SGK (Homo sapiens (Human), UniProt O00141); details: 10000 nM, read-out: Percent Control
[31] = target: SIK (Homo sapiens (Human), UniProt P57059); details: 10000 nM, read-out: Percent Control
[32] = target: SNRK (Homo sapiens (Human), UniProt Q9NRH2); details: 10000 nM, read-out: Percent Control
[33] = target: SRPK2 (Homo sapiens (Human), UniProt P78362); details: SRPK2, 10000 nM; read-out: Percent Control
[34] = target: TAK1 (Homo sapiens (Human), UniProt O43318); details: TAK1, 10000 nM; read-out: Percent Control
[35] = target: TTK (Homo sapiens (Human), UniProt P33981); details: 10000 nM, read-out: Percent Control

Chain of JNK3 (P53779 whole entry): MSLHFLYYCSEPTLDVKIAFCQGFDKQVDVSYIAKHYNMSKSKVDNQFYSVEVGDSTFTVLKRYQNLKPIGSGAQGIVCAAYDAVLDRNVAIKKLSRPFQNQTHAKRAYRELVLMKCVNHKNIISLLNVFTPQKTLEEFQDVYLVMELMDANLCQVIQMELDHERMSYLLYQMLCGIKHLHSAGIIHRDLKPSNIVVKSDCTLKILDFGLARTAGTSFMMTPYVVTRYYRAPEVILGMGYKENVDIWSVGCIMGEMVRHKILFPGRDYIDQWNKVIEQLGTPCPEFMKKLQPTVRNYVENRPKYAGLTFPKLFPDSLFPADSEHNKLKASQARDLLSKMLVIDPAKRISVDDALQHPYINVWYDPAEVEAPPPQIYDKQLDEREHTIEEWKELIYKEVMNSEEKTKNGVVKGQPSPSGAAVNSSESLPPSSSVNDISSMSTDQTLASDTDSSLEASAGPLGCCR
Chain of NDR2 (Q9Y2H1 whole entry): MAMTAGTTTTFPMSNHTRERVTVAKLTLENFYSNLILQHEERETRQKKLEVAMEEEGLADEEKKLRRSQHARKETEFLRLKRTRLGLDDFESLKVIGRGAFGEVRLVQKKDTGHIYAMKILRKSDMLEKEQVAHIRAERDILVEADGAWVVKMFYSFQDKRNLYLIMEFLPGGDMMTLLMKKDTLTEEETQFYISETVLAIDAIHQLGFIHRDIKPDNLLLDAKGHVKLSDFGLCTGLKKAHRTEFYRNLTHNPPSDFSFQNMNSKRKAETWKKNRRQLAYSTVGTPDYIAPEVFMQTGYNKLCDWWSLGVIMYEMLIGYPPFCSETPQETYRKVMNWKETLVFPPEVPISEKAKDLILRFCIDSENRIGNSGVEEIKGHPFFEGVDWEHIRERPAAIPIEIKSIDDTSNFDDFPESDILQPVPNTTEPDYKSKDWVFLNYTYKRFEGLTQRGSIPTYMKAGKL
Chain of PKMYT1 (Q99640 whole entry): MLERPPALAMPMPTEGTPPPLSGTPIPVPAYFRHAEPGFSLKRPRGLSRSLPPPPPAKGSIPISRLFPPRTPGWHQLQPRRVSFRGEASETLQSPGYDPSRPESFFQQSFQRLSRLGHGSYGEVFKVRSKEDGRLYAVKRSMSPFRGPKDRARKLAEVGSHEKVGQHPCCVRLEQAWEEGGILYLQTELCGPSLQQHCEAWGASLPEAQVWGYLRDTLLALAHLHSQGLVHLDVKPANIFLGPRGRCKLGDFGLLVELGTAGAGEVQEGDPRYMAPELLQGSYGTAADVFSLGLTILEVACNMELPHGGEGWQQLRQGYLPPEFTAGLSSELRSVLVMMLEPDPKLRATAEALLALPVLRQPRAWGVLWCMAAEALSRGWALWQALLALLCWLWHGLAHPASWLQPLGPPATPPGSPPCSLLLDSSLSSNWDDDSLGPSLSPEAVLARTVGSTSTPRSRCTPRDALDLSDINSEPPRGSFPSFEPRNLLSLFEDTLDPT
Chain of MUSK (O15146 24-869): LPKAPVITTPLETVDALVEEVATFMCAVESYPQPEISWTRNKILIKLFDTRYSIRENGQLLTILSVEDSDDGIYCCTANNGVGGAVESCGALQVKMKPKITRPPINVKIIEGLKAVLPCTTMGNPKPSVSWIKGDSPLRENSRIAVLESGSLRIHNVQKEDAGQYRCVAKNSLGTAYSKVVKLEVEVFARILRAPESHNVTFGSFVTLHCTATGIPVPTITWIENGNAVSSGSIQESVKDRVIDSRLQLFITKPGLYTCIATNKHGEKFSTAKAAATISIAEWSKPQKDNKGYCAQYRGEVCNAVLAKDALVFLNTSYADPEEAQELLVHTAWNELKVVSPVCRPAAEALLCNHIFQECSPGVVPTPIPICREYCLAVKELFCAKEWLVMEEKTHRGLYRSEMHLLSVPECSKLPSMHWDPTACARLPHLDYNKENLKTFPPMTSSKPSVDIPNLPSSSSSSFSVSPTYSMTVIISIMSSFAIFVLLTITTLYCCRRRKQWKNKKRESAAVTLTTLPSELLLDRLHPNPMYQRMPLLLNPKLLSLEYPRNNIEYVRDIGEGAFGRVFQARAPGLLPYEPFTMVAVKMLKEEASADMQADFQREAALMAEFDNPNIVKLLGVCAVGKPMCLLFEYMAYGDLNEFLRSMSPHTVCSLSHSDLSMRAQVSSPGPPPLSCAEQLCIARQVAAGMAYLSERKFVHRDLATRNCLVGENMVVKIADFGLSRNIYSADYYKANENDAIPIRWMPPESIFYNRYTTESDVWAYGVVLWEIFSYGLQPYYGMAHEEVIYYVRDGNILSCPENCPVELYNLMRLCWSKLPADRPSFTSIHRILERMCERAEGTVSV
Chain of PRKCE (Q02156 whole entry): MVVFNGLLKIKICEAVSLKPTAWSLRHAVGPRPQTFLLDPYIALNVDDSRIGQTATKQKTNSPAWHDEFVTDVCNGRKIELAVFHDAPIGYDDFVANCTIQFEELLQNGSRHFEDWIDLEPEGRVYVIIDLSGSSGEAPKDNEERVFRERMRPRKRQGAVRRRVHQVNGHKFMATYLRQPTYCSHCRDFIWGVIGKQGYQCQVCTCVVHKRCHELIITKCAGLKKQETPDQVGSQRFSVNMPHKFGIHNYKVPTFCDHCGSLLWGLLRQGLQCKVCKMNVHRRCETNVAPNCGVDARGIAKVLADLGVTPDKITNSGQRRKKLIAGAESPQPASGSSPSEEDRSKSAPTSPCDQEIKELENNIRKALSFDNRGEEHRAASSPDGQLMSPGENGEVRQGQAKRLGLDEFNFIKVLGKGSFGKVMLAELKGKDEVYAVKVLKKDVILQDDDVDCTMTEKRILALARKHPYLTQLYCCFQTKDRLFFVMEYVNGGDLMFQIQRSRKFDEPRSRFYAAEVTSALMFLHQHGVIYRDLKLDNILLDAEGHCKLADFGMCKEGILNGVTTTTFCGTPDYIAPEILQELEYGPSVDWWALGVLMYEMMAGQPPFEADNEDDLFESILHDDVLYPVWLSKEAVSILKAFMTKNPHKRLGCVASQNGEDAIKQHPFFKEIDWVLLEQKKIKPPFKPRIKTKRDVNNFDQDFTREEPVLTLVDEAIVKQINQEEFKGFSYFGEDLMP
Chain of SRPK2 (P78362 whole entry): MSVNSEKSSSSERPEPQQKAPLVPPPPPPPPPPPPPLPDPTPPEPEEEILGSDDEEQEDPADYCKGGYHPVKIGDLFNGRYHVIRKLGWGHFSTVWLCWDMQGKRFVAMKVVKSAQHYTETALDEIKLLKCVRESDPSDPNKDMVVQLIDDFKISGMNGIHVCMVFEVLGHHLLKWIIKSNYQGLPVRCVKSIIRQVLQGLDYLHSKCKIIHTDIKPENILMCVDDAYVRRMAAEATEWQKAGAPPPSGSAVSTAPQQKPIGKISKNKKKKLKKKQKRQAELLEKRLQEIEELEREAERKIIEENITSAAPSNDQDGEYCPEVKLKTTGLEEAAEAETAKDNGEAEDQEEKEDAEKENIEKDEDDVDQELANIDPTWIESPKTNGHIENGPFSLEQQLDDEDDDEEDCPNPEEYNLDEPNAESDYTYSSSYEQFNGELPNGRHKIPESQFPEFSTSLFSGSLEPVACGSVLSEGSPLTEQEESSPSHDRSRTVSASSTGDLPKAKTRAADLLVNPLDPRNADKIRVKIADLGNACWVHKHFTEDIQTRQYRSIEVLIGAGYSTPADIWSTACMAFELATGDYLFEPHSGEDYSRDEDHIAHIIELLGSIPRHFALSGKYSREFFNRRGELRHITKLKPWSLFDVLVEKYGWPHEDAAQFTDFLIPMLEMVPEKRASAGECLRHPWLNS
Chain of SGK (O00141 whole entry): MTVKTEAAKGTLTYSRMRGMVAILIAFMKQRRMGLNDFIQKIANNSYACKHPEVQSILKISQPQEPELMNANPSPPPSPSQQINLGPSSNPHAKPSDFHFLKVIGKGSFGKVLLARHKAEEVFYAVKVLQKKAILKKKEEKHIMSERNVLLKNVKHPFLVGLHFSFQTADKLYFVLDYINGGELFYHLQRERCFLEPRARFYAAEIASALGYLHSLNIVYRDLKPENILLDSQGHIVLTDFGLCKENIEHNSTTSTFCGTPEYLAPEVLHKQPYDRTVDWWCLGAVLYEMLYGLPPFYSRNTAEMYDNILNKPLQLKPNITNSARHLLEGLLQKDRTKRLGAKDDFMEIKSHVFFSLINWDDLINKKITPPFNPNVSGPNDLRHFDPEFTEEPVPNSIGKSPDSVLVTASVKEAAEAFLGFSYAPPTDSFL
Chain of CSNK1G3 (Q9Y6M4 whole entry): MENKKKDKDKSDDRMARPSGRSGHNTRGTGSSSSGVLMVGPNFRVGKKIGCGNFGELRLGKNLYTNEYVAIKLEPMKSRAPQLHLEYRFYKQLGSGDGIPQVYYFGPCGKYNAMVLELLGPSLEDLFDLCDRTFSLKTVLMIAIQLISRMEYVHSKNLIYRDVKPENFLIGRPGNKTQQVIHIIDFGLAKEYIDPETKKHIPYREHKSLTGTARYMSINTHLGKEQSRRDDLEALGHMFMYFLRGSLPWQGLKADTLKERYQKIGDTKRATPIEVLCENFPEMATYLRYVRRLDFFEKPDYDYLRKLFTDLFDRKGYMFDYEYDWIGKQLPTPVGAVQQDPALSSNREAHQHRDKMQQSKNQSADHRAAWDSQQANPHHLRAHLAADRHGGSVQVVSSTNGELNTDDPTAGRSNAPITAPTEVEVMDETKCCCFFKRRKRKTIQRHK
Chain of PIM2 (Q9P1W9 whole entry): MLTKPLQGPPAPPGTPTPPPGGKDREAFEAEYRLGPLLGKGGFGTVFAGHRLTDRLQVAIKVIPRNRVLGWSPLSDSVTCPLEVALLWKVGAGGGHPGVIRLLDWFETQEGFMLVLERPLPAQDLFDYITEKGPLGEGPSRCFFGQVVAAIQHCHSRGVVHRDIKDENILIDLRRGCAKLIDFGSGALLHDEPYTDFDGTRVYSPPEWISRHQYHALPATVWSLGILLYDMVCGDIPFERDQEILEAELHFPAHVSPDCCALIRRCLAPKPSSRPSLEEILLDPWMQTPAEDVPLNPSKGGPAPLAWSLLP

Structure (SMILES) | remaining binding at 10 µM [1] [%] | remaining binding at 10 µM [2] [%] | remaining binding at 10 µM [3] [%] | remaining binding at 10 µM [4] [%] | remaining binding at 10 µM [5] [%] | remaining binding at 10 µM [6] [%] | remaining binding at 10 µM [7] [%] | remaining binding at 10 µM [8] [%] | remaining binding at 10 µM [9] [%] | remaining binding at 10 µM [10] [%] | remaining binding at 10 µM [11] [%] | remaining binding at 10 µM [12] [%] | remaining binding at 10 µM [13] [%] | remaining binding at 10 µM [14] [%] | remaining binding at 10 µM [15] [%] | remaining binding at 10 µM [16] [%] | remaining binding at 10 µM [17] [%] | remaining binding at 10 µM [18] [%] | remaining binding at 10 µM [19] [%] | remaining binding at 10 µM [20] [%] | also measured
COc1cc(N2CCC(N3CCN(C)CC3)CC2)ccc1Nc1ncc2c(n1)N(C)c1sc(C)nc1C(=O)N2 [Compound 3, 6-((2-methoxy-4-(4-(4-methylpiperazin-1-yl)piperidin-1-yl)phenyl)amino)-2,4-dimethyl-4,9-dihydro-10H-pyrimido[5,4-b]thiazolo[5,4-e][1,4]diazepin-10-one] | 36 | 87 | 81 | 90 | 73 | 64 | 87 | 57 | 92 | 37 | 83 | 100 | 100 | 100 | 100 | 100 | 92 | 86 | 100 | 69 | remaining binding at 10 µM [21]: 90%; remaining binding at 10 µM [22]: 84%; remaining binding at 10 µM [23]: 91%; remaining binding at 10 µM [24]: 92%; remaining binding at 10 µM [25]: 72%; remaining binding at 10 µM [26]: 82%; remaining binding at 10 µM [27]: 90%; remaining binding at 10 µM [28]: 100%; remaining binding at 10 µM [29]: 100%; remaining binding at 10 µM [30]: 100%; remaining binding at 10 µM [31]: 69%; remaining binding at 10 µM [32]: 94%; remaining binding at 10 µM [33]: 87%; remaining binding at 10 µM [34]: 95%; remaining binding at 10 µM [35]: 51%
COc1cc(N2CCC(N3CCN(C)CC3)CC2)ccc1Nc1ncc2c(n1)N(C)c1sc(C)nc1C(=O)N2C [Compound 5, 6-((2-methoxy-4-(4-(4-methylpiperazin-1-yl)piperidin-1-yl)phenyl)amino)-2,4,9-trimethyl-4,9-dihydro-10H-pyrimido[5,4-b]thiazolo[5,4-e][1,4]diazepin-10-one] | 80 | 100 | 86 | 86 | 100 | 100 | 100 | 97 | 100 | 99 | 94 | 100 | 99 | 97 | 100 | 96 | 100 | 64 | 100 | 100 | remaining binding at 10 µM [21]: 100%; remaining binding at 10 µM [22]: 100%; remaining binding at 10 µM [23]: 100%; remaining binding at 10 µM [24]: 100%; remaining binding at 10 µM [25]: 100%; remaining binding at 10 µM [26]: 100%; remaining binding at 10 µM [27]: 95%; remaining binding at 10 µM [28]: 100%; remaining binding at 10 µM [29]: 94%; remaining binding at 10 µM [30]: 100%; remaining binding at 10 µM [31]: 100%; remaining binding at 10 µM [32]: 100%; remaining binding at 10 µM [33]: 89%; remaining binding at 10 µM [34]: 100%; remaining binding at 10 µM [35]: 6.9%
